Results published in publication PMC7217150, “Synthesis, Modification, and Biological Evaluation of a Library of Novel Water‐Soluble Thiopyridone‐Based Organometallic Complexes and Their Unexpected (Biological) Behavior” (Chemistry (Weinheim an Der Bergstrasse, Germany), 2020).
Like-named read-outs stand apart in the source and are kept apart here.

Legend:
[1] = tested on: human cancer cell lines CH1/PA‐1, SW480, A549; settings: tested cancer cell lines
[2] = pH 5.8
Procedure: In order to investigate a possible pH influence on complex stability and to gather further insights into the instability of the osmium complexes, UHPLC kinetic measurements were carried out at pH values of 5.8, 6.2, 6.7, 7.2 and 7.9 in phosphate buffered solution via UHPLC. […] Due to pump pressure fluctuations the retention times tended to shift ±0.18 min.
Stock solutions containing the desired complex in DMSO (5 mM) were diluted with phosphate buffer to a final concentration of 50 μM compound in 1 % DMSO/20 mM buffer and directly analyzed via gradient UHPLC runs over 24 h. Phosphate buffers at pH 5.8, 6.2, 6.7, 7.2 and 7.9 were employed to ensure a constant pH value. The instrument was set to 0.6 mL min^−1 flow rate, 37 °C sampler temperature, 25 °C column compartment, 225 nm detection wavelength, 95 % MeOH in MiliQ water +0.1 % formic acid over 7.0 min.

[3] = 1H NMR kinetics in D2O/1 % [D6]DMSO, repeated 1:1 dilution
Procedure: In order to elucidate the fate of complex 4 c* and a possible concentration effect on its stability, additional NMR and MS experiments were carried out. […] Consequently, the sample was diluted 1:1 (3 mg mL^−1) and kinetics were measured over 24 h a second time. This step was repeated six times in total (after 24, 48, 72, 96, 168, and 192 h; resulting in a final concentration of 176 μM). […] It was impossible to measure 2D NMR sets throughout the experiment, due to the low sample concentration.

[4] = tested on: CH1/PA‐1; test: MTT cytotoxicity assay, monolayer culture; assay type: cell-based, human; settings: CH1/PA‐1, MTT assay, exposure time 96 h, means ± SDs
[5] = tested on: SW480; test: MTT cytotoxicity assay, monolayer culture; assay type: cell-based, human; settings: SW480, MTT assay, exposure time 96 h, means ± SDs
[6] = tested on: A549; test: MTT cytotoxicity assay, monolayer culture; assay type: cell-based, human; settings: exposure time 96 h, means ± SDs
[7] = UV/Vis stability in aqueous solution; assay type: physicochemical; settings: in PBS, rank among osmium complexes
Procedure: In order to investigate complex stabilities, UV/Vis spectrophotometry was conducted for all complexes. […] This process is fastest for complex 4 b* followed by complexes 4 a* and finally 4 c* in PBS. Decomposition of the osmium compounds was slightly slower in pure water (Figure 5).
UV/Vis spectra were recorded using a Hewlett Packard 8452A diode‐array spectrophotometer between 200–800 nm. The path length (l) was either 1 or 2 cm. UV/Vis spectra were recorded to confirm complex stability in aqueous systems and over a pH range 5.8–7.9.

[8] = tested on: SW480; settings: SW480, MTT assay, 96 h; cited from earlier work
[9] = tested on: human cancer cell lines CH1/PA‐1, SW480, A549; set-up: method as in PMID 26365319; settings: cited from earlier work
[10] = tested on: CH1/PA‐1; settings: CH1/PA‐1, MTT assay, 96 h; cited from earlier work
[11] = tested on: A549; settings: A549, MTT assay, 96 h; cited from earlier work
[12] = tested on: autochthonous colon cancer; set-up: method as in earlier work; settings: rat model, well tolerable dose, cited from earlier work

Compound: Cc1c([O-])c(=S)ccn1Cc1ccccc1.Cc1ccc(C(C)C)cc1.[Cl-].[Os+2] [Compound 4 c, Chlorido[1‐benzyl‐2‐methyl‐3‐(oxo‐κO)‐pyridine‐4(1H)‐thionato‐κS](η^6‐p‐cymene)osmium(II)]
- IC50 values, in words [1]: low micromolar range
- stability by UHPLC [2]: stable over 24 h
- dilution at which formation of a second species became apparent [3]: 375 µg/mL
- IC50 [4]: 1300 ± 200 nM
- IC50 [5]: 5600 ± 700 nM
- IC50 [6]: 2200 ± 1200 nM

Compound: Cc1c([O-])c(=S)ccn1-c1ccccc1.Cc1ccc(C(C)C)cc1.[Cl-].[Os+2] [Compound 4 b, Chlorido[2‐methyl‐3‐(oxo‐κO)‐1‐phenylpyridine‐4(1H)‐thionato‐κS](η^6‐p‐cymene)osmium(II)]
- decomposition speed by UV/Vis [7]: fastest
- IC50 [4]: 1130 ± 30 nM
- IC50 [5]: 5800 ± 300 nM
- IC50 [6]: 2200 ± 1100 nM

Compound: N.N.[Cl][Pt][Cl] [Cisplatin]
- IC50 [8]: 3500 ± 300 nM
- activity in CH1/PA‐1 cells relative to SW480 cells [9]: up to 22 times
- IC50 [10]: 160 ± 30 nM
- IC50 [11]: 1300 ± 400 nM

Compound: [Cl][Ru-]([Cl])([Cl])[Cl].[Na+].c1ccc2[nH]ncc2c1.c1ccc2[nH]ncc2c1 [BOLD‐100]
- IC50 [8]: 62000 ± 9000 nM
- IC50 [10]: 50000 ± 6000 nM
- IC50 [11]: 156000 ± 11000 nM

Compound: [Cl-].[Cl-].[Cl-].[Cl-].[Ru+3].c1ccc2[nH][nH+]cc2c1.c1ccc2[nH]ncc2c1.c1ccc2[nH]ncc2c1 [KP1019, indazolium trans‐[tetrachlorido‐bis(1H‐indazole)ruthenate(III)]]
- reduction of tumor volume ([12]; autochthonous colon cancer): up to 95%
- weight loss [12]: no more than 6%
